# In PubChem BioAssay AID1259407 (Chemical Carcinogenesis Research Information System (CCRIS), 2018):
# Activity calls are given as the source filed them. The rule behind the calls is not given here.
# Tested on: CCRIS mutagenicity, Ames/micronucleus/aberration tests
# Assay: CCRIS mutagenicity studies
# [1] = Test System: AMES SALMONELLA TYPHIMURIUM, Strain/Indicator: TA98, Metabolic Activation: HAMSTER, LIVER, S-9, AROCLOR 1254 (10%), Method: PREINCUBATION
# [2] = Test System: AMES SALMONELLA TYPHIMURIUM, Strain/Indicator: TA98, Metabolic Activation: NONE, Method: PREINCUBATION
# [3] = Test System: AMES SALMONELLA TYPHIMURIUM, Strain/Indicator: TA98, Metabolic Activation: NONE, Method: STANDARD PLATE
# [4] = Test System: AMES SALMONELLA TYPHIMURIUM, Strain/Indicator: TA98, Metabolic Activation: RAT, LIVER, S-9, AROCLOR 1254 (10%), Method: PREINCUBATION
# [5] = Test System: AMES SALMONELLA TYPHIMURIUM, Strain/Indicator: TA100, Metabolic Activation: HAMSTER, LIVER, S-9, AROCLOR 1254 (10%), Method: PREINCUBATION
# [6] = Test System: AMES SALMONELLA TYPHIMURIUM, Strain/Indicator: TA100, Metabolic Activation: NONE, Method: PREINCUBATION
# [7] = Test System: AMES SALMONELLA TYPHIMURIUM, Strain/Indicator: TA100, Metabolic Activation: NONE, Method: STANDARD PLATE
# [8] = Test System: AMES SALMONELLA TYPHIMURIUM, Strain/Indicator: TA1535, Metabolic Activation: HAMSTER, LIVER, S-9, AROCLOR 1254 (10%), Method: PREINCUBATION
# [9] = Test System: AMES SALMONELLA TYPHIMURIUM, Strain/Indicator: TA1535, Metabolic Activation: NONE, Method: PREINCUBATION
# [10] = Test System: AMES SALMONELLA TYPHIMURIUM, Strain/Indicator: TA1537, Metabolic Activation: HAMSTER, LIVER, S-9, AROCLOR 1254 (10%), Method: PREINCUBATION
# [11] = Test System: AMES SALMONELLA TYPHIMURIUM, Strain/Indicator: TA1537, Metabolic Activation: NONE, Method: PREINCUBATION
smiles,measurement,setting,value
CCOCCO,mutagenic call,"End Point: IN VITRO CHROMOSOMAL ABERRATIONS, Test System: CHINESE HAMSTER OVARY CELLS, Metabolic Activation: RAT, LIVER, S-9, AROCLOR 1254",inactive; negative
same,mutagenic call,"Test System: AMES SALMONELLA TYPHIMURIUM, Strain/Indicator: TA97A, Metabolic Activation: NONE, Method: STANDARD PLATE",inactive; negative
same,mutagenic call,"Test System: AMES SALMONELLA TYPHIMURIUM, Strain/Indicator: TA97A, Metabolic Activation: RAT, LIVER, S-9, AROCLOR 1254, Method: STANDARD PLATE",inactive; negative
same,mutagenic call,[1],inactive; negative
same,mutagenic call,[2],inactive; negative
same,mutagenic call,[3],inactive; negative
same,mutagenic call,[4],inactive; negative
same,mutagenic call,"Test System: AMES SALMONELLA TYPHIMURIUM, Strain/Indicator: TA98, Metabolic Activation: RAT, LIVER, S-9, AROCLOR 1254, Method: STANDARD PLATE",inactive; negative
same,mutagenic call,"Test System: AMES SALMONELLA TYPHIMURIUM, Strain/Indicator: TA98, Metabolic Activation: RAT, LIVER, S-9, KC 500, Method: PREINCUBATION",inactive; negative
same,mutagenic call,[5],inactive; negative
same,mutagenic call,[6],inactive; negative
same,mutagenic call,[7],inactive; negative
same,mutagenic call,"Test System: AMES SALMONELLA TYPHIMURIUM, Strain/Indicator: TA100, Metabolic Activation: RAT, LIVER, S-9, AROCLOR 1254 (10%), Method: PREINCUBATION",inactive; negative
same,mutagenic call,"Test System: AMES SALMONELLA TYPHIMURIUM, Strain/Indicator: TA100, Metabolic Activation: RAT, LIVER, S-9, AROCLOR 1254, Method: STANDARD PLATE",inactive; negative
same,mutagenic call,"Test System: AMES SALMONELLA TYPHIMURIUM, Strain/Indicator: TA100, Metabolic Activation: RAT, LIVER, S-9, KC 500, Method: PREINCUBATION",inactive; negative
same,mutagenic call,"Test System: AMES SALMONELLA TYPHIMURIUM, Strain/Indicator: TA102, Metabolic Activation: NONE, Method: STANDARD PLATE",inactive; negative
same,mutagenic call,"Test System: AMES SALMONELLA TYPHIMURIUM, Strain/Indicator: TA102, Metabolic Activation: RAT, LIVER, S-9, AROCLOR 1254, Method: STANDARD PLATE",inactive; negative
same,mutagenic call,[8],inactive; negative
same,mutagenic call,[9],inactive; negative
same,mutagenic call,"Test System: AMES SALMONELLA TYPHIMURIUM, Strain/Indicator: TA1535, Metabolic Activation: RAT, LIVER, S-9, AROCLOR 1254 (10%), Method: PREINCUBATION",inactive; negative
same,mutagenic call,"Test System: AMES SALMONELLA TYPHIMURIUM, Strain/Indicator: TA1535, Metabolic Activation: RAT, LIVER, S-9, KC 500, Method: PREINCUBATION",inactive; negative
same,mutagenic call,[10],inactive; negative
same,mutagenic call,[11],inactive; negative
same,mutagenic call,"Test System: AMES SALMONELLA TYPHIMURIUM, Strain/Indicator: TA1537, Metabolic Activation: RAT, LIVER, S-9, AROCLOR 1254 (10%), Method: PREINCUBATION",inactive; negative
same,mutagenic call,"Test System: AMES SALMONELLA TYPHIMURIUM, Strain/Indicator: TA1537, Metabolic Activation: RAT, LIVER, S-9, KC 500, Method: PREINCUBATION",inactive; negative
same,mutagenic call,"Test System: AMES SALMONELLA TYPHIMURIUM, Strain/Indicator: TA1538, Metabolic Activation: NONE, Method: PREINCUBATION",inactive; negative
same,mutagenic call,"Test System: AMES SALMONELLA TYPHIMURIUM, Strain/Indicator: TA1538, Metabolic Activation: RAT, LIVER, S-9, KC 500, Method: PREINCUBATION",inactive; negative
same,mutagenic call,"Test System: E. COLI, Strain/Indicator: WP2 UVRA, Metabolic Activation: NONE, Method: PREINCUBATION",inactive; negative
same,mutagenic call,"Test System: E. COLI, Strain/Indicator: WP2 UVRA, Metabolic Activation: RAT, LIVER, S-9, KC 500, Method: PREINCUBATION",inactive; negative
CC1CCOB(OCCC(C)OB2OCCC(C)O2)O1 (centres undefined),mutagenic call,"Test System: MOUSE LYMPHOMA, Strain/Indicator: L5178Y (TK+/TK-), Metabolic Activation: NONE, Method: SUSPENSION/PLATE",inactive; negative. reevaluation of results: negative
same,mutagenic call,"Test System: MOUSE LYMPHOMA, Strain/Indicator: L5178Y (TK+/TK-), Metabolic Activation: RAT, LIVER, S-9, AROCLOR 1254, Method: SUSPENSION/PLATE",inactive; negative. reevaluation of results: negative
CSCCC(=O)N1[C@@H](c2ccccc2O)SC[C@H]1C(=O)O,mutagenic call,[3],inactive; negative
same,mutagenic call,[7],inactive; negative
same,mutagenic call,"Test System: AMES SALMONELLA TYPHIMURIUM, Strain/Indicator: TA1535, Metabolic Activation: NONE, Method: STANDARD PLATE",inactive; negative
same,mutagenic call,"Test System: AMES SALMONELLA TYPHIMURIUM, Strain/Indicator: TA1537, Metabolic Activation: NONE, Method: STANDARD PLATE",inactive; negative
same,mutagenic call,"Test System: AMES SALMONELLA TYPHIMURIUM, Strain/Indicator: TA1538, Metabolic Activation: NONE, Method: STANDARD PLATE",inactive; negative
same,mutagenic call,"Test System: E. COLI, Strain/Indicator: WP2, Metabolic Activation: NONE, Method: STANDARD PLATE",inactive; negative
same,mutagenic call,"Test System: E. COLI, Strain/Indicator: WP2 UVRA, Metabolic Activation: NONE, Method: STANDARD PLATE",inactive; negative
C=C(C)C#N,mutagenic call,"Test System: AMES SALMONELLA TYPHIMURIUM, Strain/Indicator: TA97, Metabolic Activation: HAMSTER, LIVER, S-9, AROCLOR 1254 (10%), Method: PREINCUBATION",inactive; negative
same,mutagenic call,"Test System: AMES SALMONELLA TYPHIMURIUM, Strain/Indicator: TA97, Metabolic Activation: HAMSTER, LIVER, S-9, AROCLOR 1254 (30%), Method: PREINCUBATION",inactive; negative
same,mutagenic call,"Test System: AMES SALMONELLA TYPHIMURIUM, Strain/Indicator: TA97, Metabolic Activation: NONE, Method: PREINCUBATION",inactive; negative
same,mutagenic call,"Test System: AMES SALMONELLA TYPHIMURIUM, Strain/Indicator: TA97, Metabolic Activation: RAT, LIVER, S-9, AROCLOR 1254 (10 OR 30%), Method: PREINCUBATION",inactive; negative
same,mutagenic call,[1],inactive; negative
same,mutagenic call,"Test System: AMES SALMONELLA TYPHIMURIUM, Strain/Indicator: TA98, Metabolic Activation: HAMSTER, LIVER, S-9, AROCLOR 1254 (30%), Method: PREINCUBATION",inactive; negative
same,mutagenic call,[2],inactive; negative
same,mutagenic call,[4],inactive; negative
same,mutagenic call,[5],inactive; negative
same,mutagenic call,"Test System: AMES SALMONELLA TYPHIMURIUM, Strain/Indicator: TA100, Metabolic Activation: HAMSTER, LIVER, S-9, AROCLOR 1254 (30%), Method: PREINCUBATION",inactive; negative
same,mutagenic call,[6],inactive; negative
same,mutagenic call,"Test System: AMES SALMONELLA TYPHIMURIUM, Strain/Indicator: TA100, Metabolic Activation: RAT, LIVER, S-9, AROCLOR 1254 (10 OR 30%), Method: PREINCUBATION",inactive; negative
same,mutagenic call,[8],inactive; negative
same,mutagenic call,"Test System: AMES SALMONELLA TYPHIMURIUM, Strain/Indicator: TA1535, Metabolic Activation: HAMSTER, LIVER, S-9, AROCLOR 1254 (30%), Method: PREINCUBATION",inactive; negative
same,mutagenic call,[9],inactive; negative
same,mutagenic call,"Test System: AMES SALMONELLA TYPHIMURIUM, Strain/Indicator: TA1535, Metabolic Activation: RAT, LIVER, S-9, AROCLOR 1254 (10 OR 30%), Method: PREINCUBATION",inactive; negative
same,mutagenic call,[10],inactive; negative
same,mutagenic call,"Test System: AMES SALMONELLA TYPHIMURIUM, Strain/Indicator: TA1537, Metabolic Activation: HAMSTER, LIVER, S-9, AROCLOR 1254 (30%), Method: PREINCUBATION",inactive; negative
same,mutagenic call,[11],inactive; negative
same,mutagenic call,"Test System: AMES SALMONELLA TYPHIMURIUM, Strain/Indicator: TA1537, Metabolic Activation: RAT, LIVER, S-9, AROCLOR 1254 (10 OR 30%), Method: PREINCUBATION",inactive; negative
same,mutagenic call,"Test System: UDS HUMAN HEPATOMA HEPG2 CELLS, Strain/Indicator: THY INCORP, Metabolic Activation: NONE, Method: LIQUID SCINTILLATION COUNTING",active; positive
